Data from US20240246964A1 (Arbutus Biopharma Corporation, priority 2021, published 2024).

What was measured:
human PD-L1 = human PD-L1 (Homo sapiens (Human), UniProt Q9NZQ7); assay: T cell activation luciferase reporter cell culture system (T Cell Activation Assay); format: cell-based; conditions: luciferase reporter assay; PD-L1 aAPC/CHO-K1 cells with PD-1 effector Jurkat T cells
[1] = target: PD-L1 His protein / PD-1 Fc protein (Homo sapiens (Human), UniProt Q9NZQ7); assay: HTRF Assay (PD-1/PD-L1 interaction); format: binding; conditions: PD-L1 His 6 nM, PD-1 Fc 6 nM
Chain of PD-L1 His protein / PD-1 Fc protein (Q9NZQ7 19-238): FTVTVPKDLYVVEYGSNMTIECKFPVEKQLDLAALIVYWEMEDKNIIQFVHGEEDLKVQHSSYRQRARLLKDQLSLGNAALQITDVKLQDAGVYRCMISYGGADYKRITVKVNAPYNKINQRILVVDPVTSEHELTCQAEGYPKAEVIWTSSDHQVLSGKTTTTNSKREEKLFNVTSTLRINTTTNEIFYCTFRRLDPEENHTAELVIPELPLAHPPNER

Chain of human PD-L1 (Q9NZQ7 19-290): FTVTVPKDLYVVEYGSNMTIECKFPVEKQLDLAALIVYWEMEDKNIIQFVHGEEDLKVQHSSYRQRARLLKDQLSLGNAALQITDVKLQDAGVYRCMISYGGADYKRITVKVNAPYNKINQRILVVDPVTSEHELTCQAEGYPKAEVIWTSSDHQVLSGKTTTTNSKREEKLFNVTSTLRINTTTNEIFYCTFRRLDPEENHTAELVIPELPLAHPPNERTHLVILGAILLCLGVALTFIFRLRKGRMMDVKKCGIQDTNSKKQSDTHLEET

SMILES | EC50 (human PD-L1) [µM] | IC50 [1] [µM]
COc1cc(-c2nccc(-c3cccc(-c4ccc(CNC5CCN(C(C)=O)CC5)c(OC)n4)c3Cl)c2Cl)ccc1CNCC(F)F [Example 513, 1-(4-(((6-(2-Chloro-3-(3-chloro-2-(4-(((2,2-difluoroethyl)amino)methyl)-3-methoxyphenyl)pyridin-4-yl)phenyl)-2-methoxypyridin-3-yl)methyl)amino)piperidin-1-yl)ethan-1-one] | 0.685 | 0.0471
COc1cc(-c2nccc(-c3cccc(-c4ccc(CN[C@H]5C[C@](C)(O)C5)c(OC)n4)c3Cl)c2Cl)ccc1CN1CC2(CNC(=O)C2)C1 [Example 517, 2-(4-(3-Chloro-4-(2-chloro-3-(5-((((1r,3r)-3-hydroxy-3-methylcyclobutyl)-amino)methyl)-6-methoxypyridin-2-yl)phenyl)pyridin-2-yl)-2-methoxybenzyl)-2,6-diazaspiro[3.4]octan-7-one] | 0.017 | 0.00155
COc1cc(-c2nccc(-c3cccc(-c4ccc(CN5CC(C)(O)C5)c(OC)n4)c3Cl)c2Cl)ccc1CN1CC2(CNC(=O)C2)C1 [Example 518, 2-(4-(3-Chloro-4-(2-chloro-3-(5-((3-hydroxy-3-methylazetidin-1-yl)methyl)-6-methoxypyridin-2-yl)phenyl)pyridin-2-yl)-2-methoxybenzyl)-2,6-diazaspiro[3.4]octan-7-one] | 0.00977 | 0.00242
COc1cc(-c2nccc(-c3cccc(-c4ccc(CN5CC6(C5)CN(C(C)=O)C6)c(OC)n4)c3Cl)c2Cl)ccc1CN1CC2(CNC(=O)C2)C1 [Example 519, 2-(4-(4-(3-(5-((6-Acetyl-2,6-diazaspiro[3.3]heptan-2-yl)methyl)-6-methoxypyridin-2-yl)-2-chlorophenyl)-3-chloropyridin-2-yl)-2-methoxybenzyl)-2,6-diazaspiro[3.4]octan-7-one] | 0.0128 | 0.00186
COc1cc(-c2ncnc(-c3cccc(-c4ccc(CNC5CCN(C(C)=O)CC5)c(OC)n4)c3Cl)c2C)ccc1CNC1CCN(C(C)=O)CC1 [Example 522, 1-(4-(((6-(3-(6-(4-(((1-Acetylpiperidin-4-yl)amino)methyl)-3-methoxyphenyl)-5-methylpyrimidin-4-yl)-2-chlorophenyl)-2-methoxypyridin-3-yl)methyl)amino)piperidin-1-yl)ethan-1-one] | ≥ 10 | 0.00205
COc1cc(-c2nccc(-c3cccc(-c4ccc(CNC5CCOCC5)c(OC)n4)c3C(F)(F)F)c2Cl)ccc1CNC1CCOCC1 [Example 529, N-((6-(3-(3-Chloro-2-(3-methoxy-4-(((tetrahydro-2H-pyran-4-yl)amino)methyl)phenyl)pyridin-4-yl)-2-(trifluoromethyl)phenyl)-2-methoxypyridin-3-yl)methyl)tetrahydro-2H-pyran-4-amine] | ≥ 10 | 0.11
COc1cc(-c2nccc(-c3cccc(-c4ccc(CNC5CCOCC5)c(OC)n4)c3Cl)c2Cl)ccc1CN1CC2(CCOCC2)C1 [Example 530, N-((6-(3-(2-(4-((7-Oxa-2-azaspiro[3.5]nonan-2-yl)methyl)-3-methoxyphenyl)-3-chloropyridin-4-yl)-2-chlorophenyl)-2-methoxypyridin-3-yl)methyl)tetrahydro-2H-pyran-4-amine] | 0.0395 | 0.00251
COc1cc(-c2nccc(-c3cccc(-c4ccc(CN5CCC(C(C)=O)CC5)c(OC)n4)c3Cl)c2Cl)ccc1CN1CCC(C(C)=O)CC1 [Example 536, 1-(1-((6-(3-(2-(4-((4-Acetylpiperidin-1-yl)methyl)-3-methoxyphenyl)-3-chloropyridin-4-yl)-2-chlorophenyl)-2-methoxypyridin-3-yl)methyl)piperidin-4-yl)ethan-1-one] | ≥ 10 | 0.0067
COc1cc(-c2ncnc(-c3cccc(-c4ccc(CN5CC6(C5)CN(C(C)=O)C6)c(OC)n4)c3Cl)c2C)ccc1CN1CC2(C1)CN(C(C)=O)C2 [Example 538, 1-(6-((6-(3-(6-(4-((6-Acetyl-2,6-diazaspiro[3.3]heptan-2-yl)methyl)-3-methoxyphenyl)-5-methylpyrimidin-4-yl)-2-chlorophenyl)-2-methoxypyridin-3-yl)methyl)-2,6-diazaspiro[3.3]heptan-2-yl)ethan-1-one] | ≥ 10 | 0.00259
COc1cc(-c2ncnc(-c3cccc(-c4ccc(CNC5CCN(C(C)=O)CC5)c(OC)n4)c3Cl)c2Cl)ccc1CNC1CCN(C(C)=O)CC1 [Example 540, 1-(4-(((6-(3-(6-(4-(((1-Acetylpiperidin-4-yl)amino)methyl)-3-methoxyphenyl)-5-chloropyrimidin-4-yl)-2-chlorophenyl)-2-methoxypyridin-3-yl)methyl)amino)piperidin-1-yl)ethan-1-one] | 0.0866 | 0.0005
COc1cc(-c2nccc(-c3cccc(-c4ccc(CN[C@@H]5CCC(=O)NC5)c(OC)n4)c3Cl)c2Cl)ccc1CNC1CCN(C(C)=O)CC1 [Example 541, (R)-5-(((6-(3-(2-(4-(((1-Acetylpiperidin-4-yl)amino)methyl)-3-methoxyphenyl)-3-chloropyridin-4-yl)-2-chlorophenyl)-2-methoxypyridin-3-yl)methyl)amino)piperidin-2-one] | 0.0934 | 0.00079
COc1cc(-c2nccc(-c3cccc(-c4ccc(CN[C@H]5CCC(=O)NC5)c(OC)n4)c3Cl)c2Cl)ccc1CNC1CCN(C(C)=O)CC1 [Example 542, (S)-5-(((6-(3-(2-(4-(((1-Acetylpiperidin-4-yl)amino)methyl)-3-methoxyphenyl)-3-chloropyridin-4-yl)-2-chlorophenyl)-2-methoxypyridin-3-yl)methyl)amino)piperidin-2-one] | 0.0792 | 0.00053
COc1cc(-c2ncnc(-c3cccc(-c4ccc(CNC[C@@H]5CCC(=O)N5)c(OC)n4)c3Cl)c2Cl)ccc1CNC[C@@H]1CCC(=O)N1 [Example 543, (S)-5-((((6-(2-chloro-3-(5-chloro-6-(3-methoxy-4-(((((S)-5-oxopyrrolidin-2-yl)methyl)amino)methyl)phenyl)pyrimidin-4-yl)phenyl)-2-methoxypyridin-3-yl)methyl)amino)methyl)pyrrolidin-2-one] | 0.0175 | 0.00029
COCCC(=O)N1CCC(NCc2ccc(-c3nccc(-c4cccc(-c5ccc(CNC6CCN(C(=O)CCOC)CC6)c(OC)n5)c4Cl)c3Cl)cc2OC)CC1 [Example 546, 1-(4-(((6-(2-Chloro-3-(3-chloro-2-(3-methoxy-4-(((1-(3-methoxypropanoyl)piperidin-4-yl)amino)methyl)phenyl)pyridin-4-yl)phenyl)-2-methoxypyridin-3-yl)methyl)amino)piperidin-1-yl)-3-methoxypropan-1-one] | 0.0195 | 0.00125
COc1nc(-c2ccnc(-c3cccc4c3CC[C@@H]4Oc3nc(OC)c(CNC4CCN(C(C)=O)CC4)cc3C(F)(F)F)c2Cl)ccc1CN1CC2(CNC(=O)C2)C1 [Example 551, (S)-2-((2′-(1-((5-(((1-Acetylpiperidin-4-yl)amino)methyl)-6-methoxy-3-(trifluoromethyl)pyridin-2-yl)oxy)-2,3-dihydro-1H-inden-4-yl)-3′-chloro-6-methoxy-[2,4′-bipyridin]-5-yl)methyl)-2,6-diazaspiro[3.4]octan-7-one] | 0.182 | 0.00032
COc1nc(-c2ccnc(-c3cccc4c3CC[C@@H]4Oc3nc(OC)c(CNC4CCOCC4)cc3C(F)(F)F)c2Cl)ccc1CN1CC2(CNC(=O)C2)C1 [Example 552, (S)-2-((3′-Chloro-6-methoxy-2′-(1-((6-methoxy-5-(((tetrahydro-2H-pyran-4-yl)amino)methyl)-3-(trifluoromethyl)pyridin-2-yl)oxy)-2,3-dihydro-1H-inden-4-yl)-[2,4′-bipyridin]-5-yl)methyl)-2,6-diazaspiro[3.4]octan-7-one] | 0.144 | 0.00025
COc1cc(-c2nccc(-c3cccc(-c4ccc5c(CNC6CCOCC6)cn(C)c5n4)c3Cl)c2Cl)ccc1CNC1CCN(C(C)=O)CC1 [Example 556, 1-(4-((4-(3-Chloro-4-(2-chloro-3-(1-methyl-3-(((tetrahydro-2H-pyran-4-yl)amino)methyl)-1H-pyrrolo[2,3-b]pyridin-6-yl)phenyl)pyridin-2-yl)-2-methoxybenzyl)amino)piperidin-1-yl)ethan-1-one] | 0.222 | 0.00122
COc1cc(-c2nccc(-c3cccc(-c4ccc5c(CNCCO)cn(C)c5n4)c3Cl)c2Cl)ccc1CNC1CCN(C(C)=O)CC1 [Example 559, 1-(4-((4-(3-Chloro-4-(2-chloro-3-(3-(((2-hydroxyethyl)amino)methyl)-1-methyl-1H-pyrrolo[2,3-b]pyridin-6-yl)phenyl)pyridin-2-yl)-2-methoxybenzyl)amino)piperidin-1-yl)ethan-1-one] | 0.0732 | 0.00161
COc1cc(-c2nccc(-c3cccc(-c4cnc(CNC5CCN(C(C)=O)CC5)c(OC)c4)c3Cl)c2Cl)ccc1CNC1CCN(C(C)=O)CC1 [Example 565, 1-(4-(((5-(3-(2-(4-(((1-acetylpiperidin-4-yl)amino)methyl)-3-methoxyphenyl)-3-chloropyridin-4-yl)-2-chlorophenyl)-3-methoxypyridin-2-yl)methyl)amino)piperidin-1-yl)ethan-1-one] | 1.04 | 0.00172
COc1cc(-c2nccc(-c3cccc(-c4ccc(CN5CC6(COC6)C5)c(OC)n4)c3C(F)(F)F)c2Cl)ccc1CN1CC2(COC2)C1 [Example 578, 6-(4-(4-(3-(5-((2-Oxa-6-azaspiro[3.3]heptan-6-yl)methyl)-6-methoxypyridin-2-yl)-2-(trifluoromethyl)phenyl)-3-chloropyridin-2-yl)-2-methoxybenzyl)-2-oxa-6-azaspiro[3.3]heptane] | ≥ 10 | 0.0703
